No end group written: not given here.
Experiment: Direct dissolution of tagged peptides in aqueous solvent (PBS) at 4 mg/mL, NanoDrop
Format: physicochemical
Conditions: 4 mg/mL in PBS vs DMSO control; FIG. 2
Protocol: For each test peptide and the parent peptides (PRCLT and DNIMV) two tubes were prepared at 4 mg/mL in either DMSO (control) or PBS.
Each tube was spun at full speed in a mini-centrifuge for 5 minutes. A 10 μL sample was removed from the top of each solution and the molecular weight and coefficient of absorption was recorded for each peptide.
The absorbance of the supernatant was measured using NanoDrop and the concentration calculated. In this Figure, greater disparity between the actual and expected concentration corresponds to lower relative solubility.

Solubility in PBS compared to the parent peptides, improved solubility in PBS:
KEGDNIMVTFRNQASRPYGKE [SEQ ID No. 26]
KEGDNIMVTFRNQASRPYGKK [SEQ ID No. 25]
KEGPRCLTRYYSSFVNMEGKE [SEQ ID No. 10]
KEGPRCLTRYYSSFVNMEGKK [SEQ ID No. 9]
KKGDNIMVTFRNQASRPYGKE [SEQ ID No. 18]
KKGDNIMVTFRNQASRPYGKK [SEQ ID No. 17]
KKGPRCLTRYYSSFVNMEGKE [SEQ ID No. 2]
KKGPRCLTRYYSSFVNMEGKK [SEQ ID No. 1]

— patent US20210346476A1, “Modified FVIII Apitope Peptides” (APITOPE INTERNATIONAL NV, priority 2012, published 2021)
